pIC50: −log10 of the molar value. Where two headings read alike, the source gives them in different places.
What was measured:
taenia coli = experiment: Antagonistic activity to calcium in the taenia coli of guinea pigs (CaCl2-induced contractions, in vitro); format: cell-based, Hartley albino guinea pigs; settings: for pIC50: Cavia porcellus, 10 min, read-out: Calcium antagonistic activity in vitro ED50; for Inhibition of contractions due to CaCl2 after washing of the tissue: taenia coli, repeated washing
Procedure: Antagonistic Activity to Calcium in the Taenia Coli of Guinea Pigs
Hartley albino guinea pigs of average weight 450 g were used. The calcium antagonistic activity was determined stimulating the taenia coli, previously depolarized, with a single submaximal concentration of CaCl2 (10^-3 M), at intervals of 20 minutes (according to the method Naunyn Schmied. Arch. Pharmacol. 318, 235 (1982)). The products were left in contact with the preparation for 10 minutes. The ED50 were calculated from the percentage of maximum inhibition.

[1] = system: Spontaneous Hypertensive Rats (SHR); experiment: Hypotensive activity in spontaneous hypertensive rats (SHR); format: in vivo, Male SHR (Okamoto) rats; settings: for ED (25%): Rattus norvegicus, po, p.o. in 0.4% carboxymethyl cellulose, systolic arterial pressure, read-out: Hypotensive activity in SHR ED^SABP -25%; for Hypotensive activity compared with Nifedipine / Duration of hypotensive activity (still present after) / Hypotensive activity relative to Nifedipine: p.o.; for Hypotensive activity compared with Nifedipine: versus Nifedipine; for Hypotensive activity relative to Nifedipine: multiple of Nifedipine activity
Procedure: Hypotensive Activity in Spontaneous Hypertensive Rats (SHR)
Male SHR (Okamoto), of 70-100 days of age were used. The systolic arterial pressure (SABP) was determined by applying to the tail of the animal a pressure transducer with a sleeve connected to a BP-Recorder (W-W Electronic of Basel). The animals were previously warmed to 39° C. for a period of 15-20 minutes in a ventilated chamber.
The rats were previously trained to the registration for 1-2 days prior to the start of the experiment which consisted of a basic registration, the pharmacological treatment and then of subsequent registrations one hour and three hours after the treatment.
All the products were administered orally (p.o.), suspended in 0.4% carboxymethyl cellulose (Methocel); the volume of vehicle was 2 ml per kg.
The compounds of formula (I) were tested at three dose levels and the value of ED-25% was determined.

in vivo = settings: mouse, iv, mice, i.v. in dimethylsulfoxide, after seven days, Litchfield and Wilcoxon
Procedure: Intravenous Toxicity in Mice
Male CD1 mice from Charles River (Italy), weighing 25 g were used. Compounds were administered intravenously (i.v.), dissolved in dimethylsulfoxide, and the volume of administration was 0.01 ml per 10 g of body weight. The LD50 after seven days, was calculated according to the method of Litchfield and Wilcoxon (Experimental Therapeutics 96, 99 (1949)).

[2] = guinea pig taenia coli, depolarized, CaCl2 10^-3 M, 10 min contact, from maximum inhibition

| SMILES | pIC50 (taenia coli; [2]) | ED (25%) [1] [mg/kg] | LD50 at 168 h (in vivo) [mg/kg] | Inhibition of contractions due to CaCl2 after washing of the tissue (taenia coli) | Hypotensive activity compared with Nifedipine [1] | Duration of hypotensive activity (still present after) [1] [h] | Hypotensive activity relative to Nifedipine [1] | pIC50 (taenia coli) |
| --- | --- | --- | --- | --- | --- | --- | --- | --- |
| COC(=O)C1=C(C)NC(C)=C(C(=O)OCCN2CCN(c3ccccc3)CC2)C1c1cccc([N+](=O)[O-])c1 (stereo not drawn) [0219A, 2-(4-Phenyl)piperazino-ethyl 2,6-dimethyl-4-(3-nitrophenyl)-5-methoxycarbonyl-1,4-dihydropyridine-3-carboxylate] | 8.62 | 8.7 | 8.6 |  |  |  |  |  |
| COC(=O)C1=C(C)NC(C)=C(C(=O)OCCN2CCN(c3nccs3)CC2)C1c1cccc([N+](=O)[O-])c1 (stereo not drawn) [0240A, 2-[4-(2-Thiazolyl)]piperazino-ethyl 2,6-dimethyl-4-(3-nitrophenyl)-5-methoxycarbonyl-1,4-dihydropyridine-3-carboxylate] | 8.38 | 31 | 7.1 |  |  |  |  |  |
| COC(=O)C1=C(C)NC(C)=C(C(=O)OCCN2CCN(c3ncccn3)CC2)C1c1cccc([N+](=O)[O-])c1 (stereo not drawn) [0241A] | 8.34 | 72 | 34.6 | readily reversible |  |  |  |  |
| COC(=O)C1=C(C)NC(C)=C(C(=O)OCCN2CCN(c3ccccc3OC)CC2)C1c1cccc([N+](=O)[O-])c1 (stereo not drawn) [0242A, 2-[4-(2-Methoxyphenyl)]-piperazino-ethyl 2,6-dimethyl-4-(3-nitrophenyl)-5-methoxycarbonyl-1,4-dihydropyridine-3-carboxylate] | 8.47 | 13.8 | 2.9 |  |  |  |  |  |
| COC(=O)C1=C(C)NC(C)=C(C(=O)OCCN2CCN(c3ccccc3C)CC2)C1c1cccc([N+](=O)[O-])c1 (stereo not drawn) [0243A, 2-[4-(2-Tolyl)]piperazino-ethyl 2,6-dimethyl-4-(3-nitrophenyl)-5-methoxycarbonyl-1,4-dihydropyridine-3-carboxylate] | 8.72 | 6.6 | 14.7 |  |  |  |  |  |
| COC(=O)C1=C(C)NC(C)=C(C(=O)OCCN2CCN(c3ccccc3Cl)CC2)C1c1cccc([N+](=O)[O-])c1 (stereo not drawn) [0248B] | 8.52 | 13.8 | 24.7 |  | superior activity |  |  |  |
| COC(=O)C1=C(C)NC(C)=C(C(=O)OCCN2CCN(c3cccc(C(F)(F)F)c3)CC2)C1c1cccc([N+](=O)[O-])c1 (stereo not drawn) [0249B] | 7.66 | 6.6 | 35.3 |  | superior activity | ≥ 30 | about twice the activity of Nifedipine |  |
| COC(=O)C1=C(C)NC(C)=C(C(=O)OCCN2CCN(c3ccc(F)cc3)CC2)C1c1cccc([N+](=O)[O-])c1 (stereo not drawn) [0250B] | 8.60 | 7.5 | 17.7 |  | superior activity | ≥ 30 | about twice the activity of Nifedipine |  |
| COC(=O)C1=C(C)NC(C)=C(C(=O)OCCN2CCN(c3ccccn3)CC2)C1c1cccc([N+](=O)[O-])c1 (stereo not drawn) [0251B] | 8.34 | 34 | 12.6 |  |  |  |  |  |
| COC(=O)C1=C(C)NC(C)=C(C(=O)OCCN2CCN(c3cccc(Cl)c3)CC2)C1c1cccc([N+](=O)[O-])c1 (stereo not drawn) [0255B] | 8.46 | 6.3 | 25.5 |  | superior activity |  |  |  |
| COC(=O)C1=C(C)NC(C)=C(C(=O)OCCN2CCN(c3ccc(Cl)cc3)CC2)C1c1cccc([N+](=O)[O-])c1 (stereo not drawn) [0264B] | 8.19 | 6.3 | 32.1 |  | superior activity | ≥ 30 | about twice the activity of Nifedipine |  |
| COC(=O)C1=C(C)NC(C)=C(C(=O)OCCN2CCN(c3ccc(OC)cc3)CC2)C1c1cccc([N+](=O)[O-])c1 (stereo not drawn) [0266B] | 8.44 | 10.7 | 22.7 |  |  |  |  |  |
| CC1=C(C(=O)OCCN2CCN(c3ccc(F)cc3)CC2)C(c2cccc([N+](=O)[O-])c2)C(C(=O)OCC(C)C)=C(C)N1 (stereo not drawn) [0282C] | 8.31 | 3.9 | 27.5 |  |  |  |  |  |
| COCCOC(=O)C1=C(C)NC(C)=C(C(=O)OCCN2CCN(c3ccc(F)cc3)CC2)C1c1cccc([N+](=O)[O-])c1 (stereo not drawn) [0283C] | 8.59 | 8.3 | 7.8 |  |  |  |  |  |
| CCOC(=O)C1=C(C)NC(C)=C(C(=O)OCCN2CCN(c3ccc(F)cc3)CC2)C1c1cccc([N+](=O)[O-])c1 (stereo not drawn) [0284C] | 8.89 | 5.3 | 9.5 |  |  |  |  |  |
| COC(=O)C1=C(C)NC(C)=C(C(=O)OCCN2CCN(c3ccc(Cl)c(Cl)c3)CC2)C1c1cccc([N+](=O)[O-])c1 (stereo not drawn) [0285C] | 7.98 | 10.2 | 39 |  |  |  |  |  |
| CC1=C(C(=O)OCCN2CCN(c3ccccc3)CC2)C(c2cccc([N+](=O)[O-])c2)C(C(=O)OCC(C)C)=C(C)N1 (stereo not drawn) [0289C, 2-(4-Phenyl)piperazinoethyl-2,6-dimethyl-4-(3-nitrophenyl)-5-isobutoxycarbonyl-1,4-dihydropyridine-3-carboxylate] | 8.20 | 2.2 | 12 |  |  |  |  |  |
| COCCOC(=O)C1=C(C)NC(C)=C(C(=O)OCCN2CCN(c3ccccc3)CC2)C1c1cccc([N+](=O)[O-])c1 (stereo not drawn) [0290C, 2-(4-Phenyl)piperazinoethyl-2,6-dimethyl-4-(3-nitrophenyl)-5-(2-methoxy)ethoxycarbonyl-1,4-dihydropyridine-3-carboxylate] | 8.52 | 16.7 | 7.5 |  |  |  |  |  |
| CCOC(=O)C1=C(C)NC(C)=C(C(=O)OCCN2CCN(c3ccccc3)CC2)C1c1cccc([N+](=O)[O-])c1 (stereo not drawn) [0291C] | 8.41 | 6.6 | 25 |  |  |  |  |  |
| CC1=C(C(=O)OCCN2CCN(c3ccc(Cl)cc3)CC2)C(c2cccc([N+](=O)[O-])c2)C(C(=O)OCC(C)C)=C(C)N1 (stereo not drawn) [0292C, 2-[4-(4-Chlorophenyl)]piperazinoethyl-2,6-dimethyl-4-(3-nitrophenyl)-5-isobutoxycarbonyl-1,4-dihydropyridine-3-carboxylate] | 7.03 | 11.7 | 35 |  |  |  |  |  |
| COCCOC(=O)C1=C(C)NC(C)=C(C(=O)OCCN2CCN(c3ccc(Cl)cc3)CC2)C1c1cccc([N+](=O)[O-])c1 (stereo not drawn) [0293C, 2-[4-(4-Chlorophenyl)]piperazinoethyl-2,6-dimethyl-4-(3-nitrophenyl)-5-(2-methoxy)ethoxycarbonyl-1,4-dihydropyridine-3-carboxylate] | 8.39 | 10.5 | 16 |  |  |  |  |  |
| COC(=O)C1=C(C)NC(C)=C(C(=O)OCCN(C)Cc2ccccc2)C1c1cccc([N+](=O)[O-])c1 (stereo not drawn) [Nicardipine, reference compound] | 8.64 | 8.6 |  |  |  |  |  |  |
| COC(=O)C1=C(C)NC(C)=C(C(=O)OC)C1c1ccccc1[N+](=O)[O-] [Nifedipine, reference compound] |  | 25 |  | readily reversible |  |  |  | 8.59 |
| CCOC(=O)C1=C(C)NC(C)=C(C(=O)OC)C1c1cccc([N+](=O)[O-])c1 (stereo not drawn) [Nitrendipine, reference compound] | 8.72 |  |  |  |  |  |  |  |

Reference: patent US4894460A (Pierrel S.p.A., priority 1982, dated 1990)
